From US20220330549A1, “USE OF N-BENZYLBENZAMIDE-BASED COMPOUND AS HERBICIDE” (Northwest A&F University, priority 2020, published 2022)

Legend:
Format in all cases: in vivo
[1] = tested on: green bristlegrass; test: Herbicidal activity test for indoor pre-emergence soil treatment; set-up: key: level 1-9; higher = more weed remaining vs blank control; details: 150 g a.i./ha, visual inspection 21 days after treatment
How it was run: (§1)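 Pre-emergence test following NY/T 1155.3-2006: weed seeds were sown in moistened neutral sandy loam (≤2% organic matter) and covered with 0.5–2.0 cm of soil. After 24 h, the soil was sprayed with a 10% EC diluted in water at 150 g(a.i.)/ha. Damage was scored visually on a 1–9 scale at 21 days.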

[2] = tested on: Piemarker; test: as above; set-up: key: level 1-9; higher = more weed remaining vs blank control; details: 150 g a.i./ha, visual inspection 21 days after treatment
How it was run: as §1

[3] = tested on: Barnyard grass; test: as above; set-up: key: level 1-9; higher = more weed remaining vs blank control; details: 150 g a.i./ha, visual inspection 21 days after treatment
How it was run: as §1

[4] = tested on: Portulaca oleracea; test: Field test for weed control in a corn field; details: 150 g a.i./ha, after treatment
How it was run: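 Field efficacy trial in corn following GB/T 17980.42-2000. Test compounds were prepared as 10% emulsifiable concentrates, diluted in water, and sprayed at 150 g(a.i.)/ha when corn had 2 to 5 leaves after sowing. Plots were 20 m^2 with 4 replicates per treatment. Herbicidal activity was scored on a 1-9 scale from weed damage symptoms and severity.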

[5] = tested on: nutgrass flatsedge; test: Field test for weed control in a corn field; details: 150 g a.i./ha, after treatment
How it was run: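 A corn field efficacy trial following GB/T 17980.42-2000 assessed post-emergence control of nutgrass flatsedge. Test compounds were formulated as 10% emulsifiable concentrates, diluted in water, and sprayed at 150 g(a.i.)/ha when the corn had 2 to 5 leaves. Each treatment had 4 replicates on 20 m^2 plots. Herbicidal activity was graded on a 1-9 scale by damage symptoms and severity.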

[6] = tested on: Convolvulus arvensis; test: Field test for weed control in a corn field; details: 150 g a.i./ha, after treatment
How it was run: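 Field trial of weed control against Convolvulus arvensis in corn, run following GB/T 17980.42-2000. Test agents were formulated as 10% emulsifiable concentrates and sprayed in water at 150 g(a.i.)/ha when corn plants had 2 to 5 leaves. Each treatment was replicated 4 times on 20 m^2 plots, and 25% mesotrione oil dispersion served as the control agent.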

[7] = tested on: goosegrass; test: Field test for weed control in a corn field; details: 150 g a.i./ha, after treatment
How it was run: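 Weed control efficacy against goosegrass was tested in a corn field following GB/T 17980.42-2000. Compounds formulated as 10% emulsifiable concentrates were diluted in water and sprayed post-emergence at 150 g(a.i.)/ha when corn had 2 to 5 leaves, with 4 replicates of 20 m^2 plots. Herbicidal activity was rated on a 1-9 scale by damage symptoms and severity.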

[8] = tested on: Solanum nigrum; test: Field test for weed control in a corn field; details: 150 g a.i./ha, 30 days after treatment
How it was run: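 Post-emergence weed control was tested in a corn field following GB/T 17980.42-2000. Compounds were made into 10% emulsifiable concentrates, diluted in water and sprayed at 150 g(a.i.)/ha when corn had 2 to 5 leaves after sowing, in 20 m^2 plots with 4 replicates. Effects on Solanum nigrum were graded on a 1-9 scale relative to the blank control area.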

[9] = tested on: Digitaria sanguinalis; test: Field test for weed control in a corn field; details: 150 g a.i./ha, after treatment
How it was run: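 Field trial in a corn field following GB/T 17980.42-2000. Test compounds were formulated as 10% emulsifiable concentrates, diluted in water and sprayed post-emergence at 150 g(a.i.)/ha when corn had 2 to 5 leaves, with 4 replicates on 20 m^2 plots. Control of Digitaria sanguinalis was scored on a 1-9 scale based on weed damage relative to the untreated blank area.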

[10] = tested on: green bristlegrass; test: Field test for weed control in a corn field; details: 150 g a.i./ha, after treatment
How it was run: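 Post-emergence weed control was tested in a corn field following GB/T 17980.42-2000. When the corn had 2 leaves to 5 leaves after sowing, 10% emulsifiable concentrates diluted in water were sprayed at 150 g(a.i.)/ha on 20 m^2 plots, four replicates per treatment. Effects on green bristlegrass were scored on a 1-9 damage scale relative to the blank control area.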

[11] = tested on: Amaranthus retroflexus; test: Field test for weed control in a corn field; details: 150 g a.i./ha, 30 days after treatment
How it was run: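 Field efficacy trial in a corn field following GB/T 17980.42-2000. Test compounds were formulated as 10% emulsifiable concentrates, diluted in water and sprayed post-emergence when corn had 2 to 5 leaves. Each treatment covered 20 m^2 with 4 replicates. A 25% mesotrione oil dispersion served as control. Damage to Amaranthus retroflexus was rated on a 1-9 scale against untreated blank plots.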

[12] = tested on: Barnyard grass; test: Field test for weed control in a corn field; details: 150 g a.i./ha, 30 days after treatment
How it was run: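 Corn-field efficacy trial following GB/T 17980.42-2000. Test compounds were formulated as 10% emulsifiable concentrates, diluted in water and sprayed post-emergence at 150 g(a.i.)/ha when corn had 2 to 5 leaves. Each treatment was replicated 4 times on 20 m^2 plots. Barnyard grass control was rated on a 1-9 damage scale.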

[13] = tested on: Chenopodium album; test: Field test for weed control in a corn field; details: 150 g a.i./ha, after treatment
How it was run: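 A corn-field efficacy trial following GB/T 17980.42-2000 tested post-emergence control of Chenopodium album. Test compounds formulated as 10% emulsifiable concentrates were diluted in water and sprayed at 150 g(a.i.)/ha when the corn had 2 leaves to 5 leaves, on 20 m^2 plots with 4 replicates. Herbicidal activity was rated on a 1-9 scale by damage symptoms and severity.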

[14] = tested on: Acalypha australis; test: Field test for weed control in a corn field; details: 150 g a.i./ha, after treatment
How it was run: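 Post-emergence field trial in a corn field following GB/T 17980.42-2000. Test compounds were formulated as 10% emulsifiable concentrates, diluted in water, and sprayed at 150 g(a.i.)/ha when corn had 2 to 5 leaves, with 4 replicates on 20 m^2 plots. Mesotrione 25% oil dispersion served as the control agent. Weed control was scored on a 1-9 scale.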

[15] = tested on: Digitaria sanguinalis; test: Herbicidal activity test for indoor pre-emergence soil treatment; set-up: key: 1-9 levels; higher = more weed remaining vs blank control; details: 150 g a.i./ha, visual inspection 21 days after treatment
How it was run: as §1

[16] = tested on: Amaranthus retroflexus; test: as above; set-up: key: 1-9 levels; higher = more weed remaining vs blank control; details: 150 g a.i./ha, visual inspection 21 days after treatment
How it was run: as §1

[17] = tested on: Broadleaf weed; test: Post-emergence herbicidal activity test in a paddy field; set-up: key: level scale; higher level = more weed left vs blank control; details: 150 g a.i./ha (penoxsulam control 250 g(a.i.)/h)
How it was run: (§2)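 Efficacy was visually estimated 15 and 30 days after spraying, grading weed coverage relative to an untreated neighbouring plot (level 2 = 0 to 2.5%, level 9 = 67.6 to 100%). Treatments were 150 g(a.i.)/ha from 10% emulsifiable concentrates applied at the 4-5 leaf rice stage, four repeats of 50 m^2 each.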

[18] = tested on: Gramineae; test: as above; set-up: key: level scale; higher level = more weed left vs blank control; details: 150 g a.i./ha (penoxsulam control 250 g(a.i.)/h)
How it was run: as §2

[19] = tested on: Cyperaceae; test: as above; set-up: key: level scale; higher level = more weed left vs blank control; details: 150 g a.i./ha (penoxsulam control 250 g(a.i.)/h)
How it was run: as §2

[20] = tested on: Digitaria sanguinalis; test: Herbicidal activity test for indoor post-emergence spraying on stems and leaves; set-up: key: grade level by weed remaining vs blank control, e.g. 5 = 10.1-15%; details: 150 g a.i./ha, visual inspection 21 days after treatment
How it was run: (§3)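 Post-emergence stem and leaf spray in an indoor test following NY/T 1155.4-2006, with weeds sown and grown in a greenhouse. Effect scored visually 21 days after treatment as graded levels, each level set by the percentage of weed remaining relative to the blank control area.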

[21] = tested on: green bristlegrass; test: as above; set-up: key: grade level by weed remaining vs blank control, e.g. 5 = 10.1-15%; details: 150 g a.i./ha, visual inspection 21 days after treatment
How it was run: as §3

[22] = tested on: Humulus scandens; test: as above; set-up: key: grade level by weed remaining vs blank control, e.g. 5 = 10.1-15%; details: 150 g a.i./ha, visual inspection 21 days after treatment
How it was run: as §3

[23] = tested on: Amaranthus retroflexus; test: as above; set-up: key: grade level by weed remaining vs blank control, e.g. 5 = 10.1-15%; details: 150 g a.i./ha, visual inspection 21 days after treatment
How it was run: as §3

[24] = tested on: Piemarker; test: as above; set-up: key: grade level by weed remaining vs blank control, e.g. 5 = 10.1-15%; details: 150 g a.i./ha, visual inspection 21 days after treatment
How it was run: as §3

[25] = tested on: Barnyard grass; test: as above; set-up: key: grade level by weed remaining vs blank control, e.g. 5 = 10.1-15%; details: 150 g a.i./ha, visual inspection 21 days after treatment
How it was run: as §3

[26] = tested on: Humulus scandens; test: Herbicidal activity test for indoor pre-emergence soil treatment; details: 150 g a.i./ha, visual inspection 21 days after treatment
How it was run: as §1

With COc1ccc(OC)c(C(=O)NCc2cccc(F)c2)c1 [Compound A22, N-(3-fluorobenzyl)-2,5-dimethoxybenzamide] as the compound, how does the “Herbicidal Activity Green bristlegrass” value [1] read?
Its value is 2 (equivalent to 0 to 2.5% of the weed in the blank control area).

And the “Herbicidal Activity Piemarker” value [2]?
The value was 2 (equivalent to 0 to 2.5% of the weed in the blank control area).

And the “Herbicidal Activity Barnyard grass” value [3]?
The value was 1.

And the “Post-emergence weed control effect, Portulaca oleracea” value [4]?
The value was 1.

And the “Post-emergence weed control effect, Nutgrass flatsedge” value [5]?
The value was 2 (equivalent to 0 to 2.5% of the weed in the blank control area).

And the “Post-emergence weed control effect, Convolvulus arvensis” value [6]?
Its value is 1.

And the “Post-emergence weed control effect, Goose grass” value [7]?
The value was 2 (equivalent to 0 to 2.5% of the weed in the blank control area).

And the “Post-emergence weed control effect, Solanum nigrum” value [8]?
The value was 2 (equivalent to 0 to 2.5% of the weed in the blank control area).

And the “Post-emergence weed control effect, Digitaria sanguinalis” value [9]?
The value was 1.

And the “Post-emergence weed control effect, Green bristlegrass” value [10]?
Its value is 2 (equivalent to 0 to 2.5% of the weed in the blank control area).

What about the “Post-emergence weed control effect, Amaranthus retroflexus” value [11] of the same compound?
The value was 1.

And the “Post-emergence weed control effect, Barnyard grass” value [12]?
The value was 2 (equivalent to 0 to 2.5% of the weed in the blank control area).

What about the “Post-emergence weed control effect, Chenopodium album” value [13] of the same compound?
Its value is 1.

What about the “Post-emergence weed control effect, Acalypha australis” value [14] of the same compound?
Its value is 2 (equivalent to 0 to 2.5% of the weed in the blank control area).

And the “Herbicidal Activity Digitaria sanguinalis” value [15]?
The value was 1.

And the “Herbicidal Activity Amaranthus retroflexus” value [16]?
The value was 2 (equivalent to 0 to 2.5% of the weed in the blank control area).

What about the “Herbicidal activity 15 days after treatment Broadleaf weed” value ([17]; 15 days after treatment) of the same compound?
Its value is 2 (equivalent to 0 to 2.5% of the weed in the blank control area).

And the “Herbicidal activity 30 days after treatment Broadleaf weed” value ([17]; 30 days after treatment)?
The value was 1.

And the “Herbicidal activity 15 days after treatment Gramineae” value ([18]; 15 days after treatment)?
The value was 1.

What about the “Herbicidal activity 30 days after treatment Gramineae” value ([18]; 30 days after treatment) of the same compound?
Its value is 1.

What about the “Herbicidal activity 15 days after treatment Cyperaceae” value ([19]; 15 days after treatment) of the same compound?
Its value is 2 (equivalent to 0 to 2.5% of the weed in the blank control area).

And the “Herbicidal activity 30 days after treatment Cyperaceae” value ([19]; 30 days after treatment)?
The value was 1.

What about the “Herbicidal Activity Digitaria sanguinalis” value [20] of the same compound?
Its value is 1.

And the “Herbicidal Activity Green bristlegrass” value [21]?
Its value is 2 (equivalent to 0 to 2.5% of the weed in the blank control area).

And the “Herbicidal Activity Humulus scandens” value [22]?
Its value is 1.

And the “Herbicidal Activity Amaranthus retroflexus” value [23]?
The value was 1.

What about the “Herbicidal Activity Piemarker” value [24] of the same compound?
Its value is 1.

What about the “Herbicidal Activity Barnyard grass” value [25] of the same compound?
The value was 1.

What about the “Herbicidal Activity Humulus scandens” value [26] of the same compound?
Its value is 4 (equivalent to 5.1 to 10% of the weed in the blank control area).
